One experiment concerns the target CDK9/cyclin T1 (Homo sapiens, UniProt P50750). The experiment is described as follows: Inhibition of human recombinant CDK9/cyclin T expressed in insect cells using pRb fragment (773 to 928 amino acids) and [gamma-33P]ATP incubated fro 30 mins by scintillation counting analysis.
For experiment [1], the target named is Cyclin-dependent kinase 7/ cyclin H (Homo sapiens, UniProt P50613). The experiment is described as follows: Inhibition of human recombinant CDK7/cyclin H using histone H1 and [gamma-33P]ATP incubated fro 30 mins by scintillation counting analysis. Type of experiment: protein-complex assay.
Experiment [2] deals with Cyclin-dependent kinase 5/CDK5 activator 1 (Homo sapiens, UniProt Q00535). The experiment is described as follows: Inhibition of human recombinant CDK5/p25 using histone H1 and [gamma-33P]ATP incubated fro 30 mins by scintillation counting analysis. Type of experiment: protein-complex assay.
A short description of experiment [3]: Inhibition of starfish oocytes CDK1/cyclin B using histone H1 and [gamma-33P]ATP incubated fro 30 mins by scintillation counting analysis. Details: species or system Asteroidea.
The test system of experiment [4] is MCF7. The experiment is described as follows: Antiproliferative activity in human MCF7 cells assessed as inhibition of cell proliferation. Type of experiment: functional, cell-based.
The subject of experiment [5] is MDA-MB-231. The experiment can be described thus: Antiproliferative activity in human MDA-MB-231 cells assessed as inhibition of cell proliferation. Type of experiment: functional, cell-based.
Experiment [6] addresses Ubiquitin-conjugating enzyme E2 B (Homo sapiens, UniProt P63146). The experiment is described as follows: Inhibition of human recombinant Rad6B using ubiquitin and histone H2A and ubiquitin-activating enzyme E1 preincubated for 1 hr before ubiquitin and histone H2A addition by SDS-PAGE and immunoblotting analysis.
Experiment [7] concerns A549. The experiment can be described thus: Antiproliferative activity in human A549 cells assessed as inhibition of cell proliferation by MTT assay. Format: functional, cell-based.
The subject of experiment [8] is MDA-MB-231. The experiment can be described thus: Antiproliferative activity in human MDA-MB-231 cells incubated for 72 hrs by MTT assay. Type of experiment: functional, cell-based. Particulars: MDA-MB-231, 72 h.
Experiment [9] relates to HT-29. The experiment can be described thus: Antiproliferative activity in human HT-29 cells incubated for 72 hrs by MTT assay. Type of experiment: functional, cell-based. Particulars: HT-29, 72 h.
The subject of the next experiment is NCI-H460. The experiment can be described thus: Antiproliferative activity in human NCI-H460 cells incubated for 72 hrs by MTT assay. Type of experiment: functional, cell-based. The settings on record: NCI-H460, 72 h.
Experiment [10] relates to Panel NCI-60 (60 carcinoma cell lines). The experiment is described as follows: Growth inhibition of human NCI60 cells incubated for 48 hrs by SRB assay. Type of experiment: functional, cell-based.
Experiment [11] in a line: Cytotoxicity in human HO8910 cells assessed as reduction in cell viability incubated for 72 hrs by MTT assay. The settings on record: HO-8910, 72 h. Type of experiment: functional, cell-based.
Experiment [12] concerns K562. The experiment can be described thus: Cytotoxicity in human K562 cells assessed as reduction in cell viability incubated for 72 hrs by MTT assay. Type of experiment: functional, cell-based. The settings on record: K562, 72 h.
Another experiment relates to PC-3. The experiment can be described thus: Cytotoxicity in human PC3 cells assessed as reduction in cell viability incubated for 72 hrs by MTT assay. Format: functional, cell-based. Particulars: PC-3, 72 h.
Experiment [13] has as its system MDA-MB-231. The experiment is described as follows: Anticancer activity against human MDA-MB-231 cells incubated for 48 hrs by MTT assay. Format: functional, cell-based. Particulars: MDA-MB-231, 48 h.
In experiment [14] the test system is MCF7. The experiment is described as follows: Anticancer activity against human MCF7 cells incubated for 48 hrs by MTT assay. Type of experiment: functional, cell-based. The settings on record: MCF7, 48 h.
Experiment [15] concerns HT-29. The experiment is described as follows: Anticancer activity against human HT-29 cells incubated for 48 hrs by MTT assay. The settings on record: HT-29, 48 h. Format: functional, cell-based.
Another experiment relates to HGC-27. The experiment can be described thus: Anticancer activity against human HGC27 cells incubated for 48 hrs by MTT assay. Format: functional, cell-based. The settings on record: HGC-27, 48 h.
Experiment [16] can be described thus: Inhibition of rhodamine-labeled purified porcine brain tubulin polymerization in presence of GTP incubated for 30 mins by epifluorescence microscopy. Details: species or system Sus scrofa.
For experiment [17], the system named is MCF7. The experiment is described as follows: Anticancer activity against human MCF7 cells incubated for 48 hrs by SRB assay. Type of experiment: functional, cell-based. Particulars: MCF7, 48 h.
A further experiment concerns HepG2. The experiment is described as follows: Anticancer activity against human HepG2 cells incubated for 48 hrs by SRB assay. Type of experiment: functional, cell-based. The settings on record: HepG2, 48 h.
Experiment [18] deals with K562. The experiment is described as follows: Antiproliferative activity in human K562 cells assessed as inhibition of cell proliferation by SRB/MTT assay. Format: functional, cell-based.
Experiment [19] concerns A549. The experiment is described as follows: Antiproliferative activity in human A549 cells assessed as inhibition of cell proliferation by SRB/MTT assay. Format: functional, cell-based.
Another experiment has as its system HCT-116. The experiment is described as follows: Antiproliferative activity in human HCT116 cells assessed as inhibition of cell proliferation by SRB/MTT assay. Type of experiment: functional, cell-based.
For a further experiment, the system named is SK-BR-3. The experiment can be described thus: Antiproliferative activity in human SK-BR-3 cells assessed as inhibition of cell proliferation by SRB/MTT assay. Format: functional, cell-based.
A further experiment has as its system BT-474. The experiment is described as follows: Antiproliferative activity in human BT474 cells assessed as inhibition of cell proliferation by SRB/MTT assay. Format: functional, cell-based.
The species named for another experiment is Homo sapiens. The experiment can be described thus: Inhibition of PI3K in human A549 cell lysates assessed as remaining enzyme activity at 1 uM pre-incubated for 5 mins before [gamma-32P]ATP addition and further incubated for 20 mins by TLC and autoradiography relative to untreated control.

The structures appear in SMILES notation. Values after ≈ are worked out from the molar mass of the structure shown.

Cyclin-dependent kinase 5/CDK5 activator 1, sequence (Q00535 whole entry): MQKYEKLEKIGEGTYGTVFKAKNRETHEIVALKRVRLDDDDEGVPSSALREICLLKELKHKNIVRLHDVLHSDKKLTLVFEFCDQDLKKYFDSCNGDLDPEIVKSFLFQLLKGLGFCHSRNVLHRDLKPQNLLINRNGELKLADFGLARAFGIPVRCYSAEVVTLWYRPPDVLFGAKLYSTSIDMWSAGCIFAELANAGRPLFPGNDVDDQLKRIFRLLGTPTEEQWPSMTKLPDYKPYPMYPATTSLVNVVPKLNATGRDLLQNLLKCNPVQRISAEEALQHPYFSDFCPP
Cyclin-dependent kinase 5/CDK5 activator 1, sequence (Q15078 whole entry, further chain): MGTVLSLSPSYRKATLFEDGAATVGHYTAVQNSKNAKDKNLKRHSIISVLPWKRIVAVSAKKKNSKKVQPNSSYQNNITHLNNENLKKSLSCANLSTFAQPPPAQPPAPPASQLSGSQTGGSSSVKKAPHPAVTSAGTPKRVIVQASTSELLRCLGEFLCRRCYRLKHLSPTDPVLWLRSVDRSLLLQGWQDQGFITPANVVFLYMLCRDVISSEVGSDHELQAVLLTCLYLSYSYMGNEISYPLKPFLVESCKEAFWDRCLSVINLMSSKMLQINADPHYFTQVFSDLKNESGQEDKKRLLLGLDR
CDK9/cyclin T1, sequence (O60563 whole entry, the tested form may be a part): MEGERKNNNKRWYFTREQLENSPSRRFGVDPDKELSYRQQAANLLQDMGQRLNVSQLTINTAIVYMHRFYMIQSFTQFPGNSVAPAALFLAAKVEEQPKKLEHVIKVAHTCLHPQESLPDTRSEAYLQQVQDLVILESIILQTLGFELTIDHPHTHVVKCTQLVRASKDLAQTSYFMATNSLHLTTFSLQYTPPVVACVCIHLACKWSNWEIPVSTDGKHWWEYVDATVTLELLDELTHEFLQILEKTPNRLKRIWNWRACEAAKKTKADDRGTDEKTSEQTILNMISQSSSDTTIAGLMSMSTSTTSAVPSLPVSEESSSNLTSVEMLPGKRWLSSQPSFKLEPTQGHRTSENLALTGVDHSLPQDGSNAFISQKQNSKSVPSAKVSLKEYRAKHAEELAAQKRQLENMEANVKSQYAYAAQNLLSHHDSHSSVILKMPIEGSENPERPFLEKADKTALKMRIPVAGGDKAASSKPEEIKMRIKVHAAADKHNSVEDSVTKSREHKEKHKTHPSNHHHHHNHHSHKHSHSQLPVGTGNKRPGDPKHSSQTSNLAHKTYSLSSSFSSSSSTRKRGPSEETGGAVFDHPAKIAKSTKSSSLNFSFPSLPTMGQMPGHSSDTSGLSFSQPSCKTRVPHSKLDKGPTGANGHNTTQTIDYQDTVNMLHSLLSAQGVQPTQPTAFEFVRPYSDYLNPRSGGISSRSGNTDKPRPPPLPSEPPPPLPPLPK
CDK9/cyclin T1, sequence (P50750 whole entry, the tested form may be a part): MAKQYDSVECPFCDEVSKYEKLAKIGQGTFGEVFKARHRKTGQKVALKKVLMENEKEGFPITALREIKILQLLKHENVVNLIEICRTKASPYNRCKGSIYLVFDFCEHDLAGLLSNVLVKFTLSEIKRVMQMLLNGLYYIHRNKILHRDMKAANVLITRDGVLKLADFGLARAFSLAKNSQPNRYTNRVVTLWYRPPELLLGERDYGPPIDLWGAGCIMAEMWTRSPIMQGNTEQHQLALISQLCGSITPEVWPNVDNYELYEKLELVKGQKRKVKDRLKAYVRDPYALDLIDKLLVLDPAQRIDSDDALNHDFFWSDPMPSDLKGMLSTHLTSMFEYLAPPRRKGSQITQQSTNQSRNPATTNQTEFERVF
Cyclin-dependent kinase 7/ cyclin H, sequence (P51946 whole entry): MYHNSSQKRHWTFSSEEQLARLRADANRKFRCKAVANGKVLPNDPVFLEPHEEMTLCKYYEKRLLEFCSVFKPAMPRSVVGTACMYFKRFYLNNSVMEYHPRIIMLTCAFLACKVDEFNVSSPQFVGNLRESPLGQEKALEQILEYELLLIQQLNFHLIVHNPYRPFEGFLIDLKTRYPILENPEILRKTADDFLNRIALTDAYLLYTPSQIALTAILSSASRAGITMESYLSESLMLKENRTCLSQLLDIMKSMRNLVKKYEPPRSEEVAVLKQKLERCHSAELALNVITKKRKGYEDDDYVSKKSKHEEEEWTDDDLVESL
Cyclin-dependent kinase 7/ cyclin H, sequence (P50613 whole entry): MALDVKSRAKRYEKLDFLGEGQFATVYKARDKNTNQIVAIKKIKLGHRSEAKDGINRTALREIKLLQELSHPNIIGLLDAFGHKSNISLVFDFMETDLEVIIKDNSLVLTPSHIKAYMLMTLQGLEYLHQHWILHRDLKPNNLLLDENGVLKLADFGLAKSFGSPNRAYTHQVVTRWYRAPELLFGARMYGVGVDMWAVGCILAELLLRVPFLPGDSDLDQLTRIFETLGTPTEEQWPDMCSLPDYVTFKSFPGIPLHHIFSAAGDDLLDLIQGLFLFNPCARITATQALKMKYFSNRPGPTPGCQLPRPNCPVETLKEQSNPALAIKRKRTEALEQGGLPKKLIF
Ubiquitin-conjugating enzyme E2 B, sequence (P63146 whole entry): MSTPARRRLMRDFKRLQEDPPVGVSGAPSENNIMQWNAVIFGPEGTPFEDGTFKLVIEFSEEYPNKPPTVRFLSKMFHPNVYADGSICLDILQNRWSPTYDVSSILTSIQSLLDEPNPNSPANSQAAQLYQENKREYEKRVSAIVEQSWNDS

`CC[C@H](CO)Nc1nc(NCc2ccccc2)n2ncc(C(C)C)c2n1`: the IC50 (on CDK9/cyclin T1; in [1]; in experiment [2]; in experiment [3]) was 0.043 to 0.5 µM each time.

On to `CCCCNc1nc(OC)nc([N+]23CC[N+](CCCl)(CC2)CC3)n1`, for which the values for the IC50 in the experiment on MCF7 [4] and in the experiment with MDA-MB-231 [5] were 7.4 to 136 µM and 40.3 to 112 µM, respectively.

For `Nc1nc(COC(=O)c2ccc([N+](=O)[O-])cc2)nc(Nc2ccccc2)n1`, the IC50 in [6] came out at 0.025 µM.

For the compound `Cc1cc(=O)n2c(n1)N=C(N)NC2c1ccco1` (configuration not stated), the IC50 in the experiment with A549 [7] was found to be 6 µM.

For `C=CCc1cc(C)cc(/C=N/NC(=O)Nc2nc(N3CCOCC3)nc(N3CCOCC3)n2)c1O`, the values for the IC50 with MDA-MB-231 [8], in the experiment with HT-29 [9] and in the experiment on NCI-H460 were 0.6 µM, 0.34 µM and 0.75 µM, respectively.

Consider `Nc1nc2nc(-c3ccccc3)nc(-c3ccccc3)n2n1`, for which the IC50 in experiment [10] was in the range of 0.49 to 100 µM.

With `COC(=O)[C@H](CO)Nc1nc(OC)nc([N+]23CC[N+](CCCl)(CC2)CC3)n1`, the IC50 in the experiment on MCF7 [4] lay within 7.4 to 136 µM; in the experiment with MDA-MB-231 [5], 40.3 to 112 µM.

Consider `Cc1ccc(Nc2nc(-c3ccccc3)nc(N3CCNCC3)n2)cc1`, for which the results for the IC50 (in [11]; in the experiment with K562 [12]; in the experiment on PC-3) were 1.06 µM, 1.01 µM and 2.23 µM, respectively.

As for `c1ccc(Nc2nc(Nc3ccc(-c4nc5ccccc5[nH]4)cc3)nc(N3CCOCC3)n2)cc1`, the IC50 with MDA-MB-231 [13], with MCF7 [14], in the experiment with HT-29 [15] and in the experiment with HGC-27 was 4.8 to 15.1 µM each time.

Take `COc1ccc(CNc2nc(NCc3ccc(OC)cc3)c3ncn(C(C)C)c3n2)cc1` [MYOSEVERIN]: in experiment [16], the IC50 was determined as 3.6 µM.

With `O=C(O)CCCc1ccc(N(CCCl)CCCl)cc1` [CHLORAMBUCIL], in the experiment on MCF7 [4], the IC50 came to 29.1 µM.

Turning to `COc1nc(N2CCOCC2)nc([N+]23CC[N+](CCCl)(CC2)CC3)n1`, the figures for the IC50 in the experiment with MCF7 [4] and with MDA-MB-231 [5] were 7.4 to 136 µM and 40.3 to 112 µM, respectively.

Consider `CCCCCCCCCCCCCCCCOC(=O)c1cc(C(=O)OCCCCCCCCCCCCCCCC)cc(-n2cc(-c3nc(-c4cn(-c5cc(C(=O)OCCCCCCCCCCCCCCCC)cc(C(=O)OCCCCCCCCCCCCCCCC)c5)nn4)nc(-c4cn(-c5cc(C(=O)OCCCCCCCCCCCCCCCC)cc(C(=O)OCCCCCCCCCCCCCCCC)c5)nn4)n3)nn2)c1`, for which the IC50 stood at 2.95 µg/mL (≈ 1.39 µM) with MCF7 [17] and 3.7 µg/mL (≈ 1.74 µM) in the experiment with HepG2.

In the case of `COc1nc(NCc2ccccc2)nc([N+]23CC[N+](CCCl)(CC2)CC3)n1`, the IC50 in the experiment with MCF7 [4] was 7.4 to 136 µM; in the experiment with MDA-MB-231 [5], 40.3 to 112 µM.

As to `COc1nc(Nc2ccccc2)nc([N+]23CC[N+](CCCl)(CC2)CC3)n1`, the IC50 was 12.3 µM with MCF7 [4] and 40.3 to 112 µM with MDA-MB-231 [5].

Regarding `Cc1cc(C)n(-c2nc(N/N=C\c3c[nH]c4ccccc34)nc(Nc3ccc(Br)cc3)n2)n1`, the concentration for half-maximal inhibition (IC50) in the experiment with K562 [18] was determined as 8.6 µM; in the experiment on A549 [19], 7.5 µM; in the experiment with HCT-116 it was 6.7 µM; in the experiment with SK-BR-3, 8.9 µM; in the experiment with BT-474, 7.1 µM.

Regarding `COc1nc(Nc2ccc(C)cc2)nc([N+]23CC[N+](CCCl)(CC2)CC3)n1`, the IC50 was 7.4 µM in the experiment on MCF7 [4] and 40.3 to 112 µM in the experiment with MDA-MB-231 [5].

For the compound `FC(F)c1nc2ccccc2n1-c1nc(N2CCOCC2)nc(N2CCOCC2)n1`, in the experiment filed under Homo sapiens, the Activity stood at 4.7%.

Take `COc1nc(N2CCCCC2)nc([N+]23CC[N+](CCCl)(CC2)CC3)n1`: the figures for the IC50 in the experiment on MCF7 [4] and with MDA-MB-231 [5] were 7.4 to 136 µM and 40.3 to 112 µM, respectively.

As for `COC(=O)[C@H](C)Nc1nc(OC)nc([N+]23CC[N+](CCCl)(CC2)CC3)n1`, the IC50 with MCF7 [4] lay in the range of 7.4 to 136 µM; in the experiment on MDA-MB-231 [5], 40.3 to 112 µM.

`N#Cc1ccc(Cn2cc(/C=N/Nc3nc(N4CCOCC4)nc(N4CCOCC4)n3)c3ccccc32)cc1` showed an IC50 in the experiment on NCI-H460 of 0.05 µM.

Take `Clc1ccc(Cn2cc(/C=N/Nc3nc(N4CCOCC4)nc(N4CCOCC4)n3)c3ccccc32)cc1Cl`: it took 0.07 µM to reach half-maximal inhibition in the experiment on NCI-H460 (IC50).

In the case of `COC(=O)[C@H](Cc1ccccc1)Nc1nc(OC)nc([N+]23CC[N+](CCCl)(CC2)CC3)n1`, the IC50 lay within 7.4 to 136 µM in the experiment with MCF7 [4] and 40.3 to 112 µM with MDA-MB-231 [5].

Values taken from ChEMBL document CHEMBL4270508, “1,3,5-Triazines: A promising scaffold for anticancer drugs development” (Eur J Med Chem, 2017).
